Patent US9532985B2, “Tetrahydroquinoline derivatives for treating post-traumatic stress disorders” (ACTELION PHARMACEUTICALS LTD., priority 2007, dated 2017)

Test system: fear-potentiated acoustic startle response in Fischer F344 rats
Experiment: Fear-potentiated startle response in rats
Assay type: in vivo, rat
Text: The compounds of formula I can be administered to the animal in order to assess their effects on emotional reactivity.
Signs of decreased emotional reactivity to acoustic stimuli have been discovered in an animal model of fear potentiated acoustic startle. Anxiolytic-like activity—as assessed by decreased acoustic startle reactivity—was observed one hour after treatment with a compound of the formula I compared to vehicle (PEG400) control treatment and to active treatment with diazepam given orally. […] In human medicine, increased acoustic startle reactivity has been observed in patients suffering from PTSD anxiety compared to healthy subjects (Exaggerated acoustic startle reflex in Gulf War veterans with posttraumatic stress disorder, Am. J. Psychiatry (1996), 153(1), 64-68).
In the fear-potentiated startle procedure in rats, a neutral stimulus such as light is repetitively paired with an aversive stimulus such as mild foot shock. When an animal is presented with loud acoustic stimuli, enhanced startle responses are elicited when the startle stimulus is preceded by the light (a classically conditioned increase in fear). Benzodiazepine anxiolytics attenuate the response enhancement. Startle response was recorded by using auditory startle chambers. […]

CNC(=O)[C@@H](c1ccccc1)N1CCc2cc(OC)c(OC)cc2[C@@H]1CCc1ccc(C(F)(F)F)cc1.Cl [Compound A, (R)-2-{(S)-6,7-dimethoxy-1-[2-(4-trifluoromethyl-phenyl)-ethyl]-3,4-dihydro-1H-isoquinolin-2-yl}-N-methyl-2-phenyl-acetamide hydrochloride]
startle response amplitude (oral 107 mg/kg, one hour after treatment, compared with vehicle (PEG400) group control 1): reduces in a significant manner the startle response amplitude

CN1C(=O)CN=C(c2ccccc2)c2cc(Cl)ccc21 [diazepam]
startle response amplitude (oral 3 mg/kg, compared with vehicle group control 2): reduces in a significant manner the startle response amplitude
